{"source": "patent US10231908B2", "about": "“Method of reducing hair loss associated with chemotherapy” (Galderma S.A., priority 2015, dated 2019)", "key": {"[1]": {"test_system": "cyclophosphamide-induced alopecia in C57B16 mice", "assay": "Cyclophosphamide-induced alopecia in mice after anagen induction by depilation", "type": "in vivo", "details": "for % of alopecia versus control: read on day 15"}, "[2]": {"details": "epinephrine 450 mM topical plus CYP at day 9"}}, "note": "Entries after “also recorded” stand apart in the source; their conditions may differ. Structures can show the parent of a compound that is named as a salt."}
{"smiles": "Brc1c(NC2=NCCN2)ccc2nccnc12", "note": "[Brimonidine, Brimonidine tartrate]", "values": [{"measurement": "% of alopecia versus control", "setting": "[1]; brimonidine 35 mM (1%) topical, 100 μL, at t-2 hours and repeated 2 hours later, CYP 120 mg/kg i.p. at day 9", "value": "prevents alopecia; also recorded: prevented hair loss"}, {"measurement": "hair shedding in dorsal depilated area (representative pictures)", "setting": "[1]; topical brimonidine, CYP-injected mice, day 15 after depilation", "value": "more hairs did not shed"}]}
{"smiles": "CNC[C@H](O)c1ccc(O)c(O)c1", "note": "[Epinephrine, Epinephrine hydrochloride]", "values": [{"measurement": "% of alopecia versus control", "setting": "[1]; epinephrine 450 mM topical, 20 min before and 10, 40 and 60 min after CYP 120 mg/kg i.p. at day 9, hydrochloride", "value": "worsened it; also recorded: worsened alopecia"}, {"measurement": "body weight of mice", "setting": "[2]", "value": "temporarily decreased the body weight"}]}
